From patent US20150336889A1, “INDOLE DERIVATIVES, PHARMACEUTICAL COMPOSITIONS CONTAINING SUCH INDOLES AND THEIR USE AS DNA METHYLATION MODULATORS” (IKERCHEM, S.L., priority 2012, published 2015)

Key:
Format in all cases: cell-based
[1] = tested on: BT474; assay: Cancer cell growth inhibition, BT474; conditions: Homo sapiens, BT-474; Breast, BT474, cell viability, 72 h
Method: (§1) Cell culture-based assays were used to evaluate the ability of compounds of the invention to inhibit cancer cell growth inhibition.
(§2) Cells were obtained from the American Type Culture Collection (ATCC) and European Collection of Cell Cultures (ECACC).
(§3) Cells were thawed in their appropriate media plus supplements (see table below). Cells were passaged at confluence by washing once in HBSS cation-free followed by a 3 minutes incubation with trypsin ([0.5 μg/ml]/EDTA [0.2 μg/ml]) (Gibco-BRL, 15400054) solution in HBSS at 37° C. (except non-adherent cell lines), and transferred to their appropriate media plus supplements. Prior to seeding at defined cell concentration, cells were recovered in medium, centrifuged and taken up in medium, and counted. […]
(§4) Dose-response curves were generated by serial dilutions (1:1) of the compounds. […] Plates were incubated 72 h, and living cell number was determined by AlamarBlue® and Hexosaminidase test. […] AlamarBlue® assay: plates were incubated 72 h and living cell number was determined by AlamarBlue (Biosource DAL1100). After 4 h incubation at 37° C., relative fluorescent intensity, which correlates with the number of living cells, was read in a Cytofluor plate reader (Millipore) at 535/590 nm (Excitation/emission). The hexosaminidase activity was measured according to the following protocol: the media was removed and cells were washed once with PBS. […]

[2] = tested on: MDA-MB-231; assay: Cancer cell growth inhibition, MDA-MB-231; conditions: Homo sapiens; Breast, MDA-MB-231, cell viability, 72 h
Method: as §1, §2, §3, §4

[3] = tested on: MDA-MB-468; assay: Cancer cell growth inhibition, MDA-MB-468; conditions: Homo sapiens; Breast, MDA-MB-468, cell viability, 72 h
Method: as §1, §2
(§5) Cells were thawed in their appropriate media plus supplements (see table below). Cells were passaged at confluence by washing once in HBSS cation-free followed by a 3 minutes incubation with trypsin ([0.5 μg/ml]/EDTA [0.2 μg/ml]) (Gibco-BRL, 15400054) solution in HBSS at 37° C. (except non-adherent cell lines), and transferred to their appropriate media plus supplements. Prior to seeding at defined cell concentration, cells were recovered in medium, centrifuged and taken up in medium, and counted.
(§6) Cells were plated at 3000/5000/10000 cells/well in 100 μl media in tissue culture 96 well plates (Cultek). After 24 h, media was supplemented by 100 μl/well of diluted IPDNs at 100 μM.
(§7) The Hexosaminidase assay was used for the adherent cell lines, whereas the AlamarBlue® assay was used for the non-adherent cell lines.
(§8) Dose-response curves were generated by serial dilutions (1:1) of the compounds. […] Reagent blanks, containing media plus colorimetric reagent without cells were run on each plate. Blank values were subtracted from test values and were routinely 5-10% of uninhibited control values. Plates were incubated 72 h, and living cell number was determined by AlamarBlue® and Hexosaminidase test. The advantages of using those assays are that both can be done in the same microwell plate. AlamarBlue® assay: plates were incubated 72 h and living cell number was determined by AlamarBlue (Biosource DAL1100). After 4 h incubation at 37° C., relative fluorescent intensity, which correlates with the number of living cells, was read in a Cytofluor plate reader (Millipore) at 535/590 nm (Excitation/emission). The hexosaminidase activity was measured according to the following protocol: the media was removed and cells were washed once with PBS. […]

[4] = tested on: SK-BR-3; assay: Cancer cell growth inhibition, SK-BR-3; conditions: Homo sapiens; Breast, SK-BR-3, cell viability, 72 h
Method: as §1, §2, §5, §6, §7, §8

[5] = tested on: PC3; assay: Cancer cell growth inhibition, PC3; conditions: Homo sapiens, PC-3; Prostate, PC3, cell viability, 72 h
Method: as §1, §2, §5, §6, §7
(§9) Dose-response curves were generated by serial dilutions (1:1) of the compounds. […] Reagent blanks, containing media plus colorimetric reagent without cells were run on each plate. Blank values were subtracted from test values and were routinely 5-10% of uninhibited control values. Plates were incubated 72 h, and living cell number was determined by AlamarBlue® and Hexosaminidase test. The advantages of using those assays are that both can be done in the same microwell plate. AlamarBlue® assay: plates were incubated 72 h and living cell number was determined by AlamarBlue (Biosource DAL1100). After 4 h incubation at 37° C., relative fluorescent intensity, which correlates with the number of living cells, was read in a Cytofluor plate reader (Millipore) at 535/590 nm (Excitation/emission). The hexosaminidase activity was measured according to the following protocol: the media was removed and cells were washed once with PBS.
(§10) Data analysis was done by calculating the percentage of cell viability normalized in front of negative control values, which were considered as a 100%. The curve was adjusted using a sigmoidal dose-response (variable slope) equation and EC50 values were obtained from the equation
(§11) where, X is the logarithm of concentration. Y is the response. Bottom is the Y value at the bottom plateau Top is the Y value at the top plateau LogEC50 is the X value when the response is halfway between Bottom and Top. With different kinds of variables, this variable is sometimes called ED50 (effective dose, 50%), or IC50 (inhibitory concentration, 50%, used when the curve goes downhill).

[6] = tested on: HCT-116; assay: Cancer cell growth inhibition, HCT-116; conditions: Homo sapiens; Colorectal, HCT-116, cell viability, 72 h
Method: as §1, §2, §5, §6, §7, §9, §10, §11

[7] = tested on: HT-29; assay: Cancer cell growth inhibition, HT-29; conditions: Homo sapiens; Colorectal, HT-29, cell viability, 72 h
Method: as §1, §2, §5, §6, §7, §8

[8] = tested on: Colo205; assay: Cancer cell growth inhibition, Colo205; conditions: Homo sapiens, COLO 205; Colorectal, Colo205, cell viability, 72 h
Method: as §1, §2, §5, §6, §7, §8

[9] = tested on: SW-480; assay: Cancer cell growth inhibition, SW-480; conditions: Homo sapiens, SW480; Colorectal, SW-480, cell viability, 72 h
Method: as §1, §2, §3, §4

[10] = tested on: NCI-H1975; assay: Cancer cell growth inhibition, NCI-H1975; conditions: Homo sapiens; Lung, NCI-H1975, cell viability, 72 h
Method: as §1, §2, §5, §6, §7, §9, §10, §11

[11] = tested on: NCI-H358; assay: Cancer cell growth inhibition, NCI-H358; conditions: Homo sapiens; Lung, NCI-H358, cell viability, 72 h
Method: as §1, §2, §5, §6, §7, §9, §10, §11

[12] = tested on: HT-1080; assay: Cancer cell growth inhibition, HT-1080; conditions: Homo sapiens; HT-1080, cell viability, 72 h
Method: as §1, §2, §5, §6, §7, §9, §10, §11

[13] = tested on: Panc-1; assay: Cancer cell growth inhibition, Panc-1; conditions: Homo sapiens; Pancreatic, Panc-1, cell viability, 72 h
Method: as §1, §2, §5, §6, §7, §9, §10, §11

[14] = tested on: BxPC3; assay: Cancer cell growth inhibition, BxPC3; conditions: Homo sapiens, BXPC-3; Pancreatic, BxPC3, cell viability, 72 h
Method: as §1, §2, §5, §6, §7, §8

[15] = tested on: RWPI; assay: Cancer cell growth inhibition, RWPI; conditions: Pancreatic, cell viability, 72 h
Method: as §1, §2, §3, §4

[16] = tested on: MDA-MB-435; assay: Cancer cell growth inhibition, MDA-MB-435; conditions: Homo sapiens; Melanoma, MDA-MB-435, cell viability, 72 h
Method: as §1, §2, §5, §6, §7, §9, §10, §11

[17] = tested on: RCC-7860; assay: Cancer cell growth inhibition, RCC-7860; conditions: Renal, RCC-7860, cell viability, 72 h
Method: as §1, §2, §3, §4

[18] = tested on: U-373MG; assay: Cancer cell growth inhibition, U-373MG; conditions: Homo sapiens, U373 MG, Brain, cell viability, 72 h
Method: as §1, §2, §5, §6, §7, §8

[19] = tested on: RAMOS; assay: Cancer cell growth inhibition, RAMOS; conditions: Homo sapiens, Hematologic, cell viability, 72 h
Method: as §1, §2, §5, §6, §7, §9, §10, §11

[20] = tested on: RPMI-8226; assay: Cancer cell growth inhibition, RPMI-8226; conditions: Homo sapiens; Multiple Myelome, RPMI-8226, cell viability, 72 h
Method: as §1, §2, §5, §6, §7, §9, §10, §11

[21] = tested on: LS174T; assay: Cancer cell growth inhibition, LS174T; conditions: Homo sapiens, Colorectal, cell viability, 72 h
Method: as §1, §2, §3, §4

Compound	EC50 [3]	EC50 [4]	EC50 [5]	EC50 [6]	EC50 [7]	EC50 [8]	EC50 [11]	EC50 [12]	EC50 [14]	EC50 [15]	EC50 [16]	EC50 [19]	EC50 [20]	further results
COc1cc(OC)c2c(-c3ccc(O)cc3)cn(CC(=O)c3ccc(O)cc3)c2c1 [Example 6, 1-(4-hydroxyphenyl)-2-[3-(4-hydroxyphenyl)-4,6-dimethoxy-1H-indol-1-yl]ethanone]	6.1 µM	3.8 µM	51 µM	5.7 µM	11 µM	16 µM	7.3 µM	9.7 µM	15 µM	25 µM	4.3 µM	6.6 µM	6.4 µM	EC50 [1]: 50 µM; EC50 [2]: 13 µM; EC50 [9]: 94 µM; EC50 [10]: 9.2 µM; EC50 [13]: 15 µM; EC50 [17]: 12 µM; EC50 [18]: 8.1 µM
O=C(Cn1cc(-c2ccc(O)cc2)c2c(F)cc(F)cc21)c1ccc(O)cc1 [Example 16, 2-[4,6-difluoro-3-(4-hydroxyphenyl)-1H-indol-1-yl]-1-(4-hydroxyphenyl) ethanone]	74 µM	59 µM	83 µM	37 µM	66 µM	31 µM	23 µM	52 µM	34 µM	46 µM	57 µM	35 µM	65 µM	EC50 [21]: 88 µM
